In brackets after ≈: the same amount, converted by molar mass. Activity calls are given as the source filed them. No cut-off for these calls is given here.

Experimental findings from ChEMBL document CHEMBL3217633, “Simplified platensimycin analogues as antibacterial agents” (2012) are described below.

One test relates to Klebsiella pneumoniae. Briefly: Antimicrobial activity against Klebsiella pneumoniae ATCC 13883. Type of test: functional, organism-based.
Test [1] relates to Staphylococcus aureus. Description: Antimicrobial activity against heterogeneous vancomycin-intermediate Staphylococcus aureus ATCC 700698 after 24 hrs by broth microdilution method. The format is functional. To be noted: ATCC 700698, 24 h.
The test system of the next test is Acinetobacter baumannii. Briefly: Antimicrobial activity against Acinetobacter baumannii ATCC 19606. The format is functional.
Test [2] relates to Staphylococcus aureus. Description: Antimicrobial activity against vancomycin-intermediate Staphylococcus aureus ATCC 700699 after 24 hrs by broth microdilution method. Particulars: ATCC 700699, 24 h. The format is functional.
A further test deals with Pseudomonas aeruginosa. Briefly: Antimicrobial activity against Pseudomonas aeruginosa ATCC 27853. The format is functional, organism-based.
Test [3] relates to Staphylococcus aureus. Briefly: Antimicrobial activity against methicillin-resistant Staphylococcus aureus ATCC 43300 after 24 hrs by broth microdilution method. To be noted: ATCC 43300, 24 h. The format is functional.
Test [4] concerns Staphylococcus aureus. Description: Antimicrobial activity against methicillin-resistant Staphylococcus aureus ATCC 43300 at 10 ug/disc after 24 hrs by disc diffusion assay. Particulars: ATCC 43300, 24 h, read-out: DIZ. Type of test: functional.
The subject of test [5] is Staphylococcus aureus. Description: Antimicrobial activity against methicillin-resistant Staphylococcus aureus ATCC 43300 at 1 mg/disc after 24 hrs by disc diffusion assay. The format is functional.

`CC12C[C@@]34C=CC(=O)[C@@](C)(CCC(=O)Nc5c(O)ccc(C(=O)O)c5O)C3[C@H](CC1C4)O2` (stereo partly drawn) [PLATENSIMYCIN]: the result in the test on Klebsiella pneumoniae, in the test on Acinetobacter baumannii and in the test on Pseudomonas aeruginosa was inactive. Besides, the MIC against Staphylococcus aureus [1], against Staphylococcus aureus [2] and against Staphylococcus aureus [3] was 2 µg/mL (≈ 4.53 µM) each time. In the test with Staphylococcus aureus [4], the zone of inhibition at 10 µg/disc amounted to 30 mm.
For the molecule `O=C(O)c1cccc(NC(=O)C2CCCC2)c1O`, the zone of inhibition at 10 µg/disc with Staphylococcus aureus [4] is 0 mm.
On the same count and under the same terms, under `CC(C)C(=O)Nc1c(O)ccc(C(=O)O)c1O` stands 0 mm.
On the same count and under the same terms, under `O=C(O)c1cccc(NC(=O)C2CCCCC2)c1O` stands 0 mm.
Regarding `O=C(O)c1ccc(O)c(NC(=O)C2CCCC2)c1O`, the zone of inhibition at 10 µg/disc with Staphylococcus aureus [4] was 0 mm. The “diameter of the inhibition zone (DIZ)” value in the test on Staphylococcus aureus [5] came to 8 mm.
For `CC(=O)NC[C@H]1CN(c2ccc(N3CCOCC3)c(F)c2)C(=O)O1` [LINEZOLID], the zone of inhibition at 10 µg/disc in the test with Staphylococcus aureus [4] stood at 26 mm.
For `CCC1(C(=O)Nc2cccc(C(=O)O)c2O)CCCCC1`, the zone of inhibition at 10 µg/disc with Staphylococcus aureus [4] came out at 0 mm. Further, the “diameter of the inhibition zone (DIZ)” value in the test with Staphylococcus aureus [5] was found to be 10 mm.
The like results for `CC12CC[C@](C(=O)Nc3c(O)ccc(C(=O)O)c3O)(OC1=O)C2(C)C` were, in that order, 18 mm and 38 mm.
Take `CC(C)(C)C(=O)Nc1cccc(C(=O)O)c1O`: the zone of inhibition at 10 µg/disc in the test on Staphylococcus aureus [4] was 0 mm.
Regarding `CC(C)(C)C(=O)Nc1c(O)ccc(C(=O)O)c1O`, the zone of inhibition at 10 µg/disc with Staphylococcus aureus [4] turned out to be 0 mm.
`O=C(O)c1ccc(O)c(NC(=O)C23CC4CC(CC(C4)C2)C3)c1O`: the zone of inhibition at 10 µg/disc in the test with Staphylococcus aureus [4] is 0 mm. Also, the “diameter of the inhibition zone (DIZ)” value in the test on Staphylococcus aureus [5] amounted to 11 mm.
Turning to `O=C(O)c1cccc(NC(=O)C23CC4CC(CC(C4)C2)C3)c1O`, in the test with Staphylococcus aureus [4], the zone of inhibition at 10 µg/disc came to 0 mm. The “diameter of the inhibition zone (DIZ)” value in the test on Staphylococcus aureus [5] was 11 mm.
The like results for `CC12CC[C@@](C(=O)Nc3cccc(C(=O)O)c3O)(OC1=O)C2(C)C` were, in that order, 0 mm and 21 mm.
The like results for `CC12CC[C@@](C(=O)Nc3c(O)ccc(C(=O)O)c3O)(OC1=O)C2(C)C` were, in that order, 0 mm and 22 mm.
Take `CCC1(C(=O)Nc2c(O)ccc(C(=O)O)c2O)CCCCC1`: the zone of inhibition at 10 µg/disc in the test with Staphylococcus aureus [4] stood at 0 mm. Also, the “diameter of the inhibition zone (DIZ)” value in the test with Staphylococcus aureus [5] was determined as 10 mm.
Regarding `O=C(O)c1ccc(O)c(NC(=O)C2CCCCC2)c1O`, in the test with Staphylococcus aureus [4], the zone of inhibition at 10 µg/disc turned out to be 0 mm.
On the same count and under the same terms, under `CC(C)C(=O)Nc1cccc(C(=O)O)c1O` stands 0 mm.
On the same count and under the same terms, under `CCC(=O)Nc1cccc(C(=O)O)c1O` stands 0 mm; under `CCC(=O)Nc1c(O)ccc(C(=O)O)c1O`, 0 mm.
For `CC12CC[C@](C(=O)Nc3cccc(C(=O)O)c3O)(OC1=O)C2(C)C`, in the test on Staphylococcus aureus [4], the zone of inhibition at 10 µg/disc is 0 mm. In the test with Staphylococcus aureus [5], the “diameter of the inhibition zone (DIZ)” value stood at 14 mm.
`CCCC(=O)Nc1cccc(C(=O)O)c1O`: in the test on Staphylococcus aureus [4], the zone of inhibition at 10 µg/disc worked out at 0 mm.
In the case of `CCCC(=O)Nc1c(O)ccc(C(=O)O)c1O`, the zone of inhibition at 10 µg/disc in the test with Staphylococcus aureus [4] was found to be 0 mm. The “diameter of the inhibition zone (DIZ)” value in the test with Staphylococcus aureus [5] was determined as 20 mm.
